From patent publication US8884011B2, “Nucleotide analogues as precursor molecules for antivirals” (Centre National de la Recherche Scientifique-CNRS, priority 2006, dated 2014)
pEC50, pKd: −log10 of the molar value. Where two headings read alike, the source gives them in different places.

Key:
[1] = Cytostatic effect on parent hepatoma cell line HepG2 (MTS method); conditions: human
HBV [2] = assay: Anti-HBV test in infected Huh7 cells; format: cell-based; conditions: Hepatitis B virus
HBV [3] = assay: Anti-HBV test in infected HepAD38 cells (intracellular viral DNA by Q-PCR); format: cell-based; conditions: for EC50: Hepatitis B virus, 144 h, infected HepAD38 cells, 50% reduction of viral DNA, day 6 post-induction
Description: These are hepatoma cells that have been stably transfected with a cDNA copy of the pregenomic RNA of wild-type virus. Withdrawal of tetracycline from the culture medium results in the initiation of viral replication. This offers the advantage, in contrast to the Hep G2.2.15 cell lines commonly used, that there is no, or very limited background viral DNA synthesis. Cells were cultured at 37° C. in a humidified 5% CO2/air atmosphere in seeding medium, DMEM/Ham's F12 (50/50) supplemented with 10% (v/v) heat-inactivated fetal calf serum, 100 IU/ml penicillin, 50 μg/ml streptomycin, 100 Ξg/ml kanamycin, 400 μg/ml G418, and 0.3 μg/ml tetracycline. […] After 2-3 days the cultures were induced for viral production by washing with prewarmed PBS and were fed with […] assay medium (seeding medium without tetracycline and G418) with or without the antiviral compounds. Medium was changed after 3 days. The antiviral effect was quantified by measuring levels of intracellular viral DNA at day 6 post-induction, by a real time quantitative PCR (Q-PCR) method. Total cellular DNA was extracted from the cells by means of a commercial kit. […] The reaction was analyzed using a SDS 7000. A plasmid containing the full length insert of the HBV genome was used to prepare the standard curve. The amount of viral DNA produced in treated cultures was expressed as a percentage of the mock treated samples. […] The cytostatic effect of the various compounds was assessed employing the parent hepatoma cell line HepG2. The effect of the compounds on exponentially growing HepG2 cells was evaluated by means of the MTS method. Briefly, cells were seeded at a density of 3000/well (96 well plate) and were allowed to proliferate for 3 days in the absence or presence of compounds after which the optical density was measured with a 96-well plate reader and cell density was determined.

HIV-1-LAI = assay: Anti-HIV test in CMSP cultures infected by HIV-1-LAI (RT activity in supernatants); format: cell-based; conditions: for EC50: Human immunodeficiency virus 1, 168 h, read-out: EC50 (μM) HIV-1 (LAI)
[4] = Cytotoxicity by MTT test in cultures of uninfected CMSP; conditions: human
influenza A (H3N2) = assay: Virus panel: influenza A (H3N2) in MDCK cells; format: cell-based; conditions: read-out: in vitro antiviral activity (EC50), none up to
Source text: (§1) influenza A (H1N1), influenza A (H3N2), influenza B, in MDCK cells;

Parainfluenza-3-virus = assay: Virus panel, CPE assay: Parainfluenza-3-virus in Vero cells; format: cell-based; conditions: read-out: in vitro antiviral activity (EC50), none up to
[5] = system: respiratory syncytial virus; assay: Virus panel, CPE assay: respiratory syncytial virus in Hela cells; format: cell-based; conditions: human respiratory syncytial virus, read-out: in vitro antiviral activity (EC50), none up to
HIV-2 (ROD) = assay: Anti-HIV test in CEM cell cultures, syncytium formation, HIV-2 (ROD); format: cell-based; conditions: Human immunodeficiency virus 2, CCRF-CEM, read-out: EC50 (μM) HIV-2
influenza A (H1N1) = assay: Virus panel: influenza A (H1N1) in MDCK cells; format: cell-based; conditions: read-out: in vitro antiviral activity (EC50), none up to
Source text: as §1

HIV-1 (IIIB) = assay: Anti-HIV test in CEM cell cultures, syncytium formation, HIV-1 (IIIB); format: cell-based; conditions: Human immunodeficiency virus 1, IIIB, CCRF-CEM, read-out: EC50 (μM) HIV-1
Description: Briefly, CEM cells (4.5×10^5 cells per ml) were suspended in fresh culture medium and infected with HIV-1 at 100 CCID50 per ml of cell suspension. Then, 100 μl of the infected cell suspension were transferred to microplate wells, mixed with 100 μl of the appropriate dilutions of the test compounds, and further incubated at 37° C. After 4 to 5 days, giant cell formation was recorded microscopically in the CEM cell cultures.

[6] = Stability in total cell extracts (CEM-SS), HPLC; format: in vitro ADME; conditions: 37° C., 0.1 mM
Description: (§2) Media and preparation of cell extracts. Culture medium was composed by RPMI 1640 containing 10% (v/v) heat-inactivated fetal calf serum and stored at −80° C. CEM-SS cell extracts were prepared according to a published procedure (Puech, F. et al. Antiv. Res. 1993, 22, 155-174). Exponentially growing CEM-SS cells were recovered by centrifugation (500 g, 4° C., 4 min), washed twice with PBS and resuspended in 10 mM Tris-HCl, 140 mM KCl (pH 7.4), at the concentration of 30×10^6 cells/mL. Cells were lyzed by ultrasonic treatment and cellular debris were removed by centrifugation (10000 g, 4° C., 20 min). The supernatant containing soluble proteins (3 mg/mL) was stored at −80° C.
Kinetic data and decomposition pathways for compounds 6 and 11 were studied at 37° C. […]
All the compounds were analyzed under the same conditions. […] The product of degradation from parent compound was determined by comparison with corresponding references.

Sindbis virus = assay: Virus panel, CPE assay: Sindbis virus in Vero cells; format: cell-based; conditions: read-out: in vitro antiviral activity (EC50), none up to
Punta Toro virus = assay: Virus panel, CPE assay: Punta Toro virus in Vero cells; format: cell-based; conditions: read-out: in vitro antiviral activity (EC50), none up to
[7] = system: vesicular stomatitis virus; assay: microbe, parasite or virus in culture; format: cell-based; conditions: HEL, read-out: in vitro antiviral activity (EC50), none up to
Reovirus-1 = assay: Virus panel, CPE assay: Reovirus-1 in Vero cells; format: cell-based; conditions: Reovirus-1, Vero cells; read-out: in vitro antiviral activity (EC50), none up to
[8] = Stability in complete medium (RPMI 1640 containing 10% heat-inactivated fetal calf serum), HPLC; format: in vitro ADME
Description: as §2
Kinetic data and decomposition pathways for compounds 6 and 11 were studied at 37° C. (a) in complete medium (RPMI 1640 containing 10% heat-inactivated fetal calf serum (b) in total cells extracts (CEM-SS). For each kinetic study, the compound solution was diluted with a freshly thawed aliquot of the considered medium to obtain an initial concentration of 0.1 mM. The mixture was incubated at 37° C. and for the required time, an aliquot (10% solution) was taken and immediately frozen at −80° C. for further HPLC analysis. The crude sample was injected into the precolumn and eluted with buffer A during 5 min. Then, the switching valve for connecting the precolumn to the column was activated, and a linear gradient from buffer A to buffer B, increasing buffer B from 0% at 0 min to 20% at 40 min is applied. The retention times were 6, 26 min; 11, 29.5 min, PMEA, 24.3 min and (R)-PMPA, 27.8 min.
All the compounds were analyzed under the same conditions. The amount of remaining parent compound at each time point was used to determine the half-life of the compound. The product of degradation from parent compound was determined by comparison with corresponding references.

Coxsackie B4 = assay: Virus panel, CPE assay: Coxsackie B4 virus in Hela and Vero cells; format: cell-based; conditions: Enterovirus B, read-out: in vitro antiviral activity (EC50), none up to
influenza B = assay: Virus panel: influenza B in MDCK cells; format: cell-based; conditions: read-out: in vitro antiviral activity (EC50), none up to
Source text: as §1

[9] = Cytotoxicity in CEM cell cultures (cell density); format: cell-based; conditions: human, 50% reduction in cell density, read-out: TC50 (the source's name)
CMSP (uninfected cells) = assay: Cytotoxicity by MTT test in cultures of uninfected CMSP; conditions: text statement to Table VII
K65R mutant RT of HIV-1 [10] = assay: biochemical; format: biochemical
K65R mutant RT of HIV-1 [11] = target: K65R mutant RT of HIV-1 (Human immunodeficiency virus type 1 group M subtype B, UniProt P04585, K652R); assay: biochemical; format: biochemical; conditions: for kpol / kpol/Kd: K65R mutant RT
wild-type RT of HIV-1 = wild-type RT of HIV-1 (Human immunodeficiency virus type 1 group M subtype B, UniProt P04585); assay: biochemical; format: biochemical; conditions: for pKd: affinities of the RT for the analogues (Kd), unit inferred; for Selectivity = (kpol/Kd) natural nucleotide/(kpol/Kd) nucleotide analogue (discrimination): versus dATP

## Nc1ncnc2c1ncn2CCOCP(=O)(O)O [PMEA, 9-(2-(phosphonomethoxy)ethyl)adenine]
[1]
  CC50 at 3 days: > 200 µM
HBV [2]; Huh-7, infected Huh7 cells, 50% reduction of viral DNA, read-out: EC50 (μM) HBV
  EC50: 6 µM
HBV [3]; HBV, HepAD38 cells
  SI selectivity index (TC50/EC50): >23
HBV [3]
  EC50: 8.8 µM
HIV-1-LAI; HIV-1 (LAI), CMSP
  IT (selectivity index, TC50/EC50): >5
HIV-1-LAI; CMSP cultures, 7 days, RT activity in supernatants
  EC50: 1.9 µM
[4]
  CC50 at 7 days: > 19 µM

## C[C@H](Cn1cnc2c(N)ncnc21)OCP(=O)(O)S (stereo partly drawn) [Compound 11, (R)-9-[2-(thiophosphonomethoxy)propyl]adenine]
Influenza A (H3N2)
  pEC50: < 3.70
Parainfluenza-3-virus
  pEC50: < 3.70
[5]
  pEC50: < 3.70
HIV-2 (ROD)
  EC50: 8.6 µM
[1]
  CC50 at 3 days: > 174 µM
Influenza A (H1N1)
  pEC50: < 3.70
HIV-1 (IIIB)
  EC50: 11.1 µM
[6]
  t1/2 cell extracts: stable^c
Sindbis virus
  pEC50: < 3.70
HBV [2]; Huh-7, read-out: EC50 (μM) HBV
  EC50: 5 µM
Punta Toro virus
  pEC50: < 3.70
HBV [3]
  EC50: 2.26 µM
[7]
  pEC50: < 3.70
Reovirus-1
  pEC50: < 3.70
[8]; bovine, serum, 37° C., initial concentration 0.1 mM, read-out: t1/2 complete medium
  half-life at 0.1 mM: > 24 h
[8]; complete medium, 37° C., degradation into the phosphonate
  product intact: ^b: product 77% intact (degradation into PMPA)
[8]; culture medium
  degradation: 20%
HIV-1-LAI
  EC50: 1.6 µM
Coxsackie B4
  pEC50: < 3.70
Influenza B
  pEC50: < 3.70
[9]
  CC50: > 165 µM
CMSP (uninfected cells)
  not cytotoxic (highest concentration tested): > 200 µM
[4]
  CC50 at 7 days: > 100 µM

## Nc1ncnc2c1ncn2CCOCP(O)(=S)OP(=O)(O)OP(=O)(O)O (stereo not drawn) [Compound 12, 9-[2-(diphosphorylthiophosphonomethoxy)ethyl]adenine]
K65R mutant RT of HIV-1 [10]
  reduction in the incorporation velocity of the nucleotide (factor): 18
K65R mutant RT of HIV-1 [11]
  pKd: 6.15
  kpol: 0.03 s⁻¹
  kpol/Kd: 0.04
wild-type RT of HIV-1; wild-type RT
  pKd: 5.92
  incorporation velocity, times lower than that of natural nucleotide dATP: 90 times
  kpol: 0.55 s⁻¹
  kpol/Kd: 0.5
  Selectivity = (kpol/Kd) natural nucleotide/(kpol/Kd) nucleotide analogue (discrimination): 14.5

## C[C@H](Cn1cnc2c(N)ncnc21)OCP(O)(=S)OP(=O)(O)OP(=O)(O)O (stereo partly drawn) [Compound 13, (R)-9-[2-(pyrophosphoroxythiophosphonomethoxy)propyl]adenine]
K65R mutant RT of HIV-1 [11]
  pKd: 5.57
  kpol: 0.077 s⁻¹
  kpol/Kd: 0.03
wild-type RT of HIV-1
  incorporation velocity, times lower than that of natural nucleotide dATP: 90 times
  kpol: 0.58 s⁻¹
  kpol/Kd: 0.11
wild-type RT of HIV-1; Kd (μM), wild-type RT
  Kd: 5.2 µM
wild-type RT of HIV-1; wild-type RT
  pKd: 5.26
  Selectivity = (kpol/Kd) natural nucleotide/(kpol/Kd) nucleotide analogue (discrimination): 59.8
